Reference: patent US6737383B1, “Herbicidal oxadiazolidines” (priority 1999, dated 2004)

How the values were obtained:
bedstraw = assay: Test B pre/postemergence bedstraw; type: in vivo, Galium aparine; conditions: Preemergence
Summary of the method: (§1)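 Herbicidal effect was estimated by eye on a ten-point control scale after plants spent twelve to sixteen days in a greenhouse following soil or foliar treatment. Foliar sprays targeted plants at one to four leaves; all doses were formulated in a non-phytotoxic solvent with surfactant.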

blackgrass = assay: Test B pre/postemergence blackgrass; type: in vivo, Alopecurus myosuroides
Summary of the method: as §1

surinam grass = assay: Test B pre/postemergence surinam grass; type: in vivo, Brachiaria decumbens
Summary of the method: as §1

cocklebur = assay: Test B pre/postemergence cocklebur; type: in vivo, Xanthium strumarium
Summary of the method: as §1

corn = assay: Test B pre/postemergence corn; type: in vivo, Zea mays
Summary of the method: as §1

crabgrass = assay: Test B pre/postemergence crabgrass; type: in vivo, Digitaria sanguinalis
Summary of the method: as §1

giant foxtail = assay: Test B pre/postemergence giant foxtail; type: in vivo, Setaria faberii
Summary of the method: as §1

morningglory = assay: Test B pre/postemergence morningglory; type: in vivo, Ipomoea hederacea
Summary of the method: as §1

pigweed = assay: Test B pre/postemergence pigweed; type: in vivo, Amaranthus retroflexus
Summary of the method: as §1

rape = assay: Test B pre/postemergence rape; type: in vivo, Brassica napus
Summary of the method: as §1

soybean = assay: Test B pre/postemergence soybean; type: in vivo, Glycine max
Summary of the method: as §1

sugar beet = assay: Test B pre/postemergence sugar beet; type: in vivo, Beta vulgaris
Summary of the method: as §1

velvetleaf = assay: Test B pre/postemergence velvetleaf; type: in vivo, Abutilon theophrasti
Summary of the method: as §1

wheat = assay: Test B pre/postemergence wheat; type: in vivo, Triticum aestivum
Summary of the method: as §1

wild oat = assay: Test B pre/postemergence wild oat; type: in vivo, Avena fatua
Summary of the method: as §1

purple nutsedge = assay: Test B pre/postemergence purple nutsedge; type: in vivo, Cyperus rotundus
Summary of the method: as §1

rice = assay: Test B flood test rice; type: in vivo, Oryza sativa
Summary of the method: (§2)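 Plants were grown to the 2-leaf stage before treatment with test chemical, then held in a greenhouse for twelve to sixteen days. Injury was visually rated against untreated controls on a 0–10 scale, where 0 is no effect and 10 is complete control.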

smallflower flatsedge = assay: Test B flood test smallflower flatsedge; type: in vivo, Cyperus difformis
Summary of the method: as §2

duck salad = assay: Test B flood test duck salad; type: in vivo, Heteranthera limosa
Summary of the method: as §2

bamyardgrass = assay: Test B flood test barnyardgrass; type: in vivo, Echinochloa crus-galli
Summary of the method: as §2

[1] = Postemergence, Rate 62 g/ha, scale 0 to 10, 0 is no effect, 10 is complete control
[2] = Postemergence, Rate 125 g/ha, scale of 0 to 10 where 0 is no effect and 10 is complete control
[3] = Postemergence, Rate 250 g/ha, scale of 0 to 10, 0 is no effect, 10 is complete control
[4] = Preemergence, Rate 62 g/ha, scale of 0 to 10 where 0 is no effect and 10 is complete control
[5] = Preemergence, Rate 125 g/ha, scale of 0 to 10 where 0 is no effect and 10 is complete control
[6] = Preemergence, Rate 250 g/ha, scale 0 to 10 (0 no effect, 10 complete control)
[7] = Preemergence, Rate 500 g/ha, scale of 0 to 10 where 0 is no effect and 10 is complete control
[8] = Rate 500 g/ha, Postemergence, scale 0 to 10, 0 is no effect, 10 is complete control
[9] = Rate 62 g/ha, flood test species, Pre-emergence, visual evaluation after twelve to sixteen days
[10] = Rate 125 g/ha, under heading Pre-emergence, flood test species, visual evaluation after twelve to sixteen days
[11] = Rate 250 g/ha, Pre-emergence (flood test species), scale 0 to 10, 0 is no effect, 10 is complete control
[12] = Rate 500 g/ha, Pre-emergence section of Table B, 0 to 10 scale (0 no effect, 10 complete control)

C#CC=CC(C)(C)n1c(=O)on(C(=O)N(c2ccccc2)C(C)C)c1=O [Compound 655]
1: Plant response rating, Crabgrass (crabgrass; [1]) | Plant response rating, Giant foxtail (giant foxtail; [1]) | Plant response rating, Redroot pigweed (pigweed; [1]) | Wild oats plant response rating (wild oat; [8])
4: Plant response rating, Redroot pigweed (pigweed; [7]) | Soybean plant response rating (soybean; [8])
2: Plant response rating, Blackgrass (blackgrass; [6]) | B. signalgrass plant response rating (surinam grass; [3]) | B. signalgrass plant response rating (surinam grass; [8]) | Redroot pigweed plant response rating (pigweed; [2]) | Redroot pigweed plant response rating (pigweed; [5]) | Plant response rating, Redroot pigweed (pigweed; [6]) | Rape plant response rating (rape; [2]) | Plant response rating, Soybean (soybean; [1]) | Soybean plant response rating (soybean; [2]) | Sugarbeets plant response rating (sugar beet; [8])
0: Bedstraw plant response rating (bedstraw; Rate 62 g/ha, scale of 0 to 10 where 0 is no effect and 10 is complete control) | Bedstraw plant response rating (bedstraw; Rate 125 g/ha, scale of 0 to 10 where 0 is no effect and 10 is complete control) | Plant response rating, Bedstraw (bedstraw; Rate 250 g/ha, scale 0 to 10 (0 no effect, 10 complete control)) | Plant response rating, Bedstraw (bedstraw; Rate 500 g/ha, scale of 0 to 10 where 0 is no effect and 10 is complete control) | Plant response rating, Blackgrass (blackgrass; [1]) | Blackgrass plant response rating (blackgrass; [2]) | Blackgrass plant response rating (blackgrass; [3]) | Blackgrass plant response rating (blackgrass; [4]) | Blackgrass plant response rating (blackgrass; [5]) | Plant response rating, B. signalgrass (surinam grass; [1]) | Plant response rating, B. signalgrass (surinam grass; [2]) | B. signalgrass plant response rating (surinam grass; [4]) | B. signalgrass plant response rating (surinam grass; [5]) | Plant response rating, B. signalgrass (surinam grass; [6]) | Plant response rating, B. signalgrass (surinam grass; [7]) | Plant response rating, Cocklebur (cocklebur; [1]) | Cocklebur plant response rating (cocklebur; [2]) | Cocklebur plant response rating (cocklebur; [3]) | Cocklebur plant response rating (cocklebur; [4]) | Cocklebur plant response rating (cocklebur; [5]) | Plant response rating, Cocklebur (cocklebur; [6]) | Plant response rating, Cocklebur (cocklebur; [7]) | Cocklebur plant response rating (cocklebur; [8]) | Plant response rating, Corn (corn; [1]) | Corn plant response rating (corn; [2]) | Corn plant response rating (corn; [3]) | Corn plant response rating (corn; [4]) | Corn plant response rating (corn; [5]) | Plant response rating, Corn (corn; [6]) | Plant response rating, Corn (corn; [7]) | Corn plant response rating (corn; [8]) | Morningglory plant response rating (morningglory; [4]) | Morningglory plant response rating (morningglory; [5]) | Plant response rating, Morningglory (morningglory; [6]) | Plant response rating, Morningglory (morningglory; [7]) | Redroot pigweed plant response rating (pigweed; [4]) | Plant response rating, Rape (rape; [1]) | Rape plant response rating (rape; [4]) | Rape plant response rating (rape; [5]) | Plant response rating, Rape (rape; [6]) | Plant response rating, Rape (rape; [7]) | Soybean plant response rating (soybean; [4]) | Soybean plant response rating (soybean; [5]) | Plant response rating, Soybean (soybean; [6]) | Plant response rating, Soybean (soybean; [7]) | Plant response rating, Sugarbeets (sugar beet; [1]) | Sugarbeets plant response rating (sugar beet; [2]) | Sugarbeets plant response rating (sugar beet; [4]) | Sugarbeets plant response rating (sugar beet; [5]) | Plant response rating, Sugarbeets (sugar beet; [6]) | Plant response rating, Sugarbeets (sugar beet; [7]) | Plant response rating, Velvetleaf (velvetleaf; [1]) | Velvetleaf plant response rating (velvetleaf; [2]) | Velvetleaf plant response rating (velvetleaf; [4]) | Velvetleaf plant response rating (velvetleaf; [5]) | Plant response rating, Velvetleaf (velvetleaf; [6]) | Plant response rating, Velvetleaf (velvetleaf; [7]) | Velvetleaf plant response rating (velvetleaf; [8]) | Plant response rating, Wheat (wheat; [1]) | Wheat plant response rating (wheat; [2]) | Wheat plant response rating (wheat; [4]) | Wheat plant response rating (wheat; [5]) | Plant response rating, Wheat (wheat; [6]) | Plant response rating, Wheat (wheat; [7]) | Wheat plant response rating (wheat; [8]) | Plant response rating, Wild oats (wild oat; [1]) | Wild oats plant response rating (wild oat; [2]) | Wild oats plant response rating (wild oat; [4]) | Wild oats plant response rating (wild oat; [5]) | Plant response rating, Wild oats (wild oat; [6]) | Plant response rating, Wild oats (wild oat; [7]) | Plant response rating, Nutsedge (purple nutsedge; [1]) | Nutsedge plant response rating (purple nutsedge; [2]) | Nutsedge plant response rating (purple nutsedge; [4]) | Nutsedge plant response rating (purple nutsedge; [5]) | Plant response rating, Nutsedge (purple nutsedge; [6]) | Plant response rating, Nutsedge (purple nutsedge; [7]) | Plant response rating, Rice (0 to 10 scale, 0 is no effect, 10 is complete control) (rice; [9]) | Rice plant response rating (0 to 10 scale, 0 is no effect, 10 is complete control) (rice; [10]) | Rice plant response rating (rice; [11]) | Rice plant response rating (rice; [12]) | Plant response rating, S. Flatsedge (0 to 10 scale, 0 is no effect, 10 is complete control) (smallflower flatsedge; [9]) | S. Flatsedge plant response rating (0 to 10 scale, 0 is no effect, 10 is complete control) (smallflower flatsedge; [10]) | S. Flatsedge plant response rating (smallflower flatsedge; [11]) | S. Flatsedge plant response rating (smallflower flatsedge; [12]) | Plant response rating, Ducksalad (0 to 10 scale, 0 is no effect, 10 is complete control) (duck salad; [9]) | Ducksalad plant response rating (0 to 10 scale, 0 is no effect, 10 is complete control) (duck salad; [10]) | Ducksalad plant response rating (duck salad; [11]) | Ducksalad plant response rating (duck salad; [12]) | Plant response rating, Barnyardgrass (0 to 10 scale, 0 is no effect, 10 is complete control) (bamyardgrass; [9]) | Barnyardgrass plant response rating (0 to 10 scale, 0 is no effect, 10 is complete control) (bamyardgrass; [10]) | Barnyardgrass plant response rating (bamyardgrass; [11]) | Barnyardgrass plant response rating (bamyardgrass; [12])
3: Plant response rating, Blackgrass (blackgrass; [7]) | Blackgrass plant response rating (blackgrass; [8]) | Giant foxtail plant response rating (giant foxtail; [4]) | Rape plant response rating (rape; [8])
7: Giant foxtail plant response rating (giant foxtail; [2]) | Redroot pigweed plant response rating (pigweed; [8])
8: Crabgrass plant response rating (crabgrass; [2]) | Crabgrass plant response rating (crabgrass; [3]) | Crabgrass plant response rating (crabgrass; [5]) | Plant response rating, Crabgrass (crabgrass; [6])
9: Plant response rating, Crabgrass (crabgrass; [7]) | Crabgrass plant response rating (crabgrass; [8]) | Giant foxtail plant response rating (giant foxtail; [5]) | Plant response rating, Giant foxtail (giant foxtail; [6]) | Plant response rating, Giant foxtail (giant foxtail; [7]) | Giant foxtail plant response rating (giant foxtail; [8]) | Plant response rating, Morningglory (morningglory; [1]) | Morningglory plant response rating (morningglory; [3])
